In one series the target is NaV1.1 (Homo sapiens (Human), UniProt P35498). The series is described as follows: Sodium Influx Assay (Flux), NaV1.1.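 Also: channels co-expressed with human β1 subunit and held open by modulators, cells exposed to compounds for one hour at room temperature, IC50 from percent inhibition of influx.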 It is filed as cell-based. As to conditions: Trex HEK293 cells, ANG2 dye, inactivated state.
The target in another series is NaV1.5 (Homo sapiens (Human), UniProt Q14524). Kind of series: Sodium Influx Assay (Flux), NaV1.5. The following applies: read-out: Flux NaV1.5 IC50; Trex HEK293 cells, ANG2 dye, inactivated state.
Series [1] deals with T1, NaV1.6 (Homo sapiens (Human), UniProt Q9UQD0). Kind of series: Electrophysiological Assay (EP), patch voltage clamp, NaV1.6.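 Also: sodium current recorded at ambient temperature, channels held inactivated then briefly repolarized to −150 mV for 20 ms before a test pulse, control currents in 0.5% DMSO.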 As to conditions: HEK-293 cells, whole-cell patch clamp. It is filed as cell-based. In general terms: In patch-clamp work, channel activity is measured electrically.
Series [2] addresses T1, NaV1.6. Kind of series: Sodium Influx Assay (Flux), NaV1.6.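 Also: Tetracycline-induced cells, compounds applied for one hour at room temperature with modulators holding channels open, IC50 from percent inhibition of sodium influx.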 The following applies: Trex HEK293 cells, ANG2 dye, inactivated state. The series is classed as cell-based.

Counter-ions that a name gives are not always drawn.

T1 sequence (Q9UQD0 whole entry): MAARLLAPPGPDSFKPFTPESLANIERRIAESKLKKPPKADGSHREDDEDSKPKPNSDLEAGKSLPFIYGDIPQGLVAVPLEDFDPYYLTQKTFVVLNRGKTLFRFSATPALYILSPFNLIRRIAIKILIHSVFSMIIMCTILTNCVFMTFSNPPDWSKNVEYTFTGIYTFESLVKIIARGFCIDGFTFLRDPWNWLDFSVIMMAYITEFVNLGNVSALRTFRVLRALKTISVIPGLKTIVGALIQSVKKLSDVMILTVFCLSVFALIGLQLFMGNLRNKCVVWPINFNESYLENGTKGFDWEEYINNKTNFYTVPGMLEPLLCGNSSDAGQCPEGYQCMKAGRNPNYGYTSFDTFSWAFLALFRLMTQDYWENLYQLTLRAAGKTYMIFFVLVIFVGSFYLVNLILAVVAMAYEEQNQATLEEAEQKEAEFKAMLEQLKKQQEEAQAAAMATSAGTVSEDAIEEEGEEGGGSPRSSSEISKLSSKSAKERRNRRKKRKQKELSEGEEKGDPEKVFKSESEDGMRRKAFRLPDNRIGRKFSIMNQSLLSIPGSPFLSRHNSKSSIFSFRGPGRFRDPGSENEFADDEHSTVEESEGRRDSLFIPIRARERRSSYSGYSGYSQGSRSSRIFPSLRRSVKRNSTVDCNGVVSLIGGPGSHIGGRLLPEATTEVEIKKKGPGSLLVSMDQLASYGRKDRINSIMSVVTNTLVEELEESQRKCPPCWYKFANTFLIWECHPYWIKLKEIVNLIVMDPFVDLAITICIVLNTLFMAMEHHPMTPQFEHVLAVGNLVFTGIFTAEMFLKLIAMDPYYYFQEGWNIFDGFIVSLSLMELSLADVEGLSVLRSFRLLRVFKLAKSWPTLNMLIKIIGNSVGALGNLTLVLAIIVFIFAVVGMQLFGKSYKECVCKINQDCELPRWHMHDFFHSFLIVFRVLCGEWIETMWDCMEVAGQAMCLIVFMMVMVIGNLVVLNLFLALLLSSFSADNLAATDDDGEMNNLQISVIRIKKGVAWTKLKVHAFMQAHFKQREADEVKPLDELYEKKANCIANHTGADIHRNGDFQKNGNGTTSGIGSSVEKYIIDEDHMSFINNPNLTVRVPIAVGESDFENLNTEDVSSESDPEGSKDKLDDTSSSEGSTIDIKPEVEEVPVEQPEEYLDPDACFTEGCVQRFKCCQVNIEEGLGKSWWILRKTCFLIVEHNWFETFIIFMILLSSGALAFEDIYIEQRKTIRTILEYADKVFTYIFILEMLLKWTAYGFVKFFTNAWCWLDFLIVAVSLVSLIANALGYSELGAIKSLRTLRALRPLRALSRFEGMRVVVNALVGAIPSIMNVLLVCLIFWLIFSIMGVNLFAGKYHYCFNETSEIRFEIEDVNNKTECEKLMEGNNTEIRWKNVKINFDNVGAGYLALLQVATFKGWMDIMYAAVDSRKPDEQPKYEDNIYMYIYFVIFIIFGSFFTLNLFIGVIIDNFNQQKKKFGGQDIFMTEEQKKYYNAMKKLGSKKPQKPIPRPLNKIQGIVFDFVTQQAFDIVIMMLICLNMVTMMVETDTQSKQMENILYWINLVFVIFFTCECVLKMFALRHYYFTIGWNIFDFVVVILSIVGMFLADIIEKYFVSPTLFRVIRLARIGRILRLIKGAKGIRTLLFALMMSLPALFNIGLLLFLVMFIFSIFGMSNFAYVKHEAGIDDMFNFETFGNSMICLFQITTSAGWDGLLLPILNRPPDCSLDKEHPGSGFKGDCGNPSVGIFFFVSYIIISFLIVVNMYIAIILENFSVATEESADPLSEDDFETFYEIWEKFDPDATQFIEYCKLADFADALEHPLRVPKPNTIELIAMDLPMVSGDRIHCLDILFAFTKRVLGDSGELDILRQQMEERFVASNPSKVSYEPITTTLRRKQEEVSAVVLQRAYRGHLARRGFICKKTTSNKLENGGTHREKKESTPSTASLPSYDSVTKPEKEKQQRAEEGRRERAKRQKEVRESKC
Sequence of NaV1.5 (Q14524 other isoform, or with tags, fused parts or gaps): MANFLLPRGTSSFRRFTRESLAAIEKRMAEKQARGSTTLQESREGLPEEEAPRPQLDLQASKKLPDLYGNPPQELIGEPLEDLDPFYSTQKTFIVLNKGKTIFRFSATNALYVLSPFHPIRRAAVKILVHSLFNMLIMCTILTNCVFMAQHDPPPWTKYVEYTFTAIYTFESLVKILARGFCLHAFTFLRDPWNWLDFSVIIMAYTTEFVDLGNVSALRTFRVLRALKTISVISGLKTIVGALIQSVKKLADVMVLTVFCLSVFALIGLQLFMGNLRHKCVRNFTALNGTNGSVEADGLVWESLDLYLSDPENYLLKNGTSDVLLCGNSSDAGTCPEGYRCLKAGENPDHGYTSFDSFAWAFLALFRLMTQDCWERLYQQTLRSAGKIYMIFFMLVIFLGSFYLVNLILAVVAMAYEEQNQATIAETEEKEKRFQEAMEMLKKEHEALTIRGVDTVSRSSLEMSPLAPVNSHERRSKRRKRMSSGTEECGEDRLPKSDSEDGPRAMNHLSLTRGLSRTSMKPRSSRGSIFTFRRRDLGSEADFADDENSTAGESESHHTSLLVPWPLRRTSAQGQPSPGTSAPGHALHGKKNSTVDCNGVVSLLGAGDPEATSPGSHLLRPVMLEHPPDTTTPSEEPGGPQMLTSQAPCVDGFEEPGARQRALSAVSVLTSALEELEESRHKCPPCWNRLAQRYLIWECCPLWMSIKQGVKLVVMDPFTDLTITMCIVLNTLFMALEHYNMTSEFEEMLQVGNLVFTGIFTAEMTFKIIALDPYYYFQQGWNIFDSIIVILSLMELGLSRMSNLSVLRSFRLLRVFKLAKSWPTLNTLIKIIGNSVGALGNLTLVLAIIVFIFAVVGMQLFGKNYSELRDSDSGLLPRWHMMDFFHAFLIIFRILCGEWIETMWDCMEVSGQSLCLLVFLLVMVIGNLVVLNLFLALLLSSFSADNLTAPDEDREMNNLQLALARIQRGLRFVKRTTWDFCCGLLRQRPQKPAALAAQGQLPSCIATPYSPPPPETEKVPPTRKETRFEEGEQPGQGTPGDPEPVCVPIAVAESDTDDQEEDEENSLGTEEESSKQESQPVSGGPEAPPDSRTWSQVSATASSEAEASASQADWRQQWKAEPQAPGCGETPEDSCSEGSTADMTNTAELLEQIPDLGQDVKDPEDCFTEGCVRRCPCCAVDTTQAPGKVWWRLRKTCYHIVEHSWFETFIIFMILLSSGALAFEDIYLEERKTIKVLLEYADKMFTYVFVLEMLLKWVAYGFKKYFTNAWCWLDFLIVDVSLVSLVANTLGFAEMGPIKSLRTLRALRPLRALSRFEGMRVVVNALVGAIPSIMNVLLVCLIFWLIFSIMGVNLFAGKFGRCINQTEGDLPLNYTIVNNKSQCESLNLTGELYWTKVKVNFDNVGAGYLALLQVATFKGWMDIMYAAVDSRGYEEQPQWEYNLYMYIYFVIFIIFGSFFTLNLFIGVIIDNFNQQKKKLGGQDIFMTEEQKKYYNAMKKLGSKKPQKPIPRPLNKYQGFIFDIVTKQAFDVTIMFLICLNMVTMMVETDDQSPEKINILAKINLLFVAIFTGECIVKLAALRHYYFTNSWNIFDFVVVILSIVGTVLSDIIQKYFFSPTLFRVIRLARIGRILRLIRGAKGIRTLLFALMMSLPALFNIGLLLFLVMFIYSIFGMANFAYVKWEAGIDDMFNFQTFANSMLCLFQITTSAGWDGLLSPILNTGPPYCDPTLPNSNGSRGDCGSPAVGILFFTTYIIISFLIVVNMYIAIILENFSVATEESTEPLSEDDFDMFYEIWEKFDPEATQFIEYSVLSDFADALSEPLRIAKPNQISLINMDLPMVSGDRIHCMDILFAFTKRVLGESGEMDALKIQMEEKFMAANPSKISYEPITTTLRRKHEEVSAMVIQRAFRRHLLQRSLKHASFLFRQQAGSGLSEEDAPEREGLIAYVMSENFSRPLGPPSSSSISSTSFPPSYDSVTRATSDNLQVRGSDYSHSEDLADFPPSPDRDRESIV

Turning to `CC[C@H](Nc1ccc(S(=O)(=O)Nc2ncns2)cc1Cl)c1ccccc1` [Example 32, (S)-3-chloro-4-((1-phenylpropyl)amino)-N-(1,2,4-thiadiazol-5-yl)benzenesulfonamide], the IC50 (commonly the concentration needed to halve the response being measured) on NaV1.1 was determined as 1.06 µM; at NaV1.5, 12.8 µM; against NaV1.6 [1] it was 0.023 µM; on NaV1.6 [2], 0.092 µM.
As for `CCC(Nc1cc(F)c(S(=O)(=O)Nc2ncns2)cc1F)c1ccccc1` (centres unmarked) [Example 85, 2,5-difluoro-4-((1-phenylpropyl)amino)-N-(1,2,4-thiadiazol-5-yl)benzenesulfonamide], the IC50 turned out to be 0.516 µM against NaV1.1, 30 µM on NaV1.5, 0.078 µM at NaV1.6 [1] and 0.107 µM at NaV1.6 [2].
Regarding `CCC(Nc1cc(F)c(S(=O)(=O)Nc2cccc(F)n2)cc1Cl)c1ccccc1` (centres unmarked) [Example 86, 5-chloro-2-fluoro-N-(6-fluoropyridin-2-yl)-4-((1-phenylpropyl)amino)benzenesulfonamide], the IC50 at NaV1.1 came out at 16.6 µM; at NaV1.5, 12.7 µM; against NaV1.6 [1] it was 0.558 µM; at NaV1.6 [2], 4.06 µM.
In the case of `COC1(C)CN(Cc2cccc(F)c2CNc2cc(F)c(S(=O)(=O)Nc3cscn3)c(F)c2)C1` [Example 172, 2,6-difluoro-4-((2-fluoro-6-((3-methoxy-3-methylazetidin-1-yl)methyl)benzyl)amino)-N-(thiazol-4-yl)benzenesulfonamide formate], the IC50 on NaV1.1 worked out at 25.8 µM; at NaV1.5, 30 µM; against NaV1.6 [1] it was 0.023 µM; against NaV1.6 [2] it was 0.078 µM.
Taken in the same sequence, the figures for `O=S(=O)(Nc1ccsn1)c1c(F)cc(NCc2c(F)cccc2CN2CCC2)cc1F` [Example 188, 4-((2-(azetidin-1-ylmethyl)-6-fluorobenzyl)amino)-2,6-difluoro-N-(isothiazol-3-yl)benzenesulfonamide 2,2,2-trifluoroacetate] were 9.2 µM, 30 µM, 0.012 µM and 0.025 µM.
Taken in the same sequence, the figures for `O=S(=O)(Nc1ccon1)c1c(F)cc(NCc2c(F)cccc2CN2CCC2)cc1F` [Example 204, 4-((2-(azetidin-1-ylmethyl)-6-fluorobenzyl)amino)-2,6-difluoro-N-(isoxazol-3-yl)benzenesulfonamide 2,2,2-trifluoroacetate] were 30 µM, 23.1 µM, 0.081 µM and 0.187 µM.
For `O=S(=O)(Nc1cscn1)c1ccc(NCc2c(F)ccc(F)c2CN2CCC2)c(F)c1F` [Example 213, 4-((2-(azetidin-1-ylmethyl)-3,6-difluorobenzyl)amino)-2,3-difluoro-N-(thiazol-4-yl)benzenesulfonamide 2,2,2-trifluoroacetate], the IC50 at NaV1.1 was 30 µM; at NaV1.5, 30 µM; against NaV1.6 [1], 0.021 µM; against NaV1.6 [2], 0.156 µM.
Turning to `O=S(=O)(Nc1cscn1)c1c(F)cc(NCc2c(F)ccc(F)c2CN2CCC2)c(F)c1F` [Example 215, 4-((2-(azetidin-1-ylmethyl)-3,6-difluorobenzyl)amino)-2,3,6-trifluoro-N-(thiazol-4-yl)benzenesulfonamide 2,2,2-trifluoroacetate], the IC50 amounted to 10.3 µM against NaV1.1, 21.5 µM on NaV1.5, 0.003 µM on NaV1.6 [1] and 0.021 µM against NaV1.6 [2].
The corresponding values for `Cc1c(NCc2c(F)cccc2CN2CCC2)cc(F)c(S(=O)(=O)Nc2cscn2)c1F` [Example 304, 4-((2-(azetidin-1-ylmethyl)-6-fluorobenzyl)amino)-2,6-difluoro-3-methyl-N-(thiazol-4-yl)benzenesulfonamide 2,2,2-trifluoroacetate] are 5.3 µM, 21.2 µM, 0.002 µM and 0.008 µM.
`Cc1c(NCc2ccccc2CN2CCC2)cc(F)c(S(=O)(=O)Nc2ccncn2)c1F` [Example 310, 4-((2-(azetidin-1-ylmethyl)benzyl)amino)-2,6-difluoro-3-methyl-N-(pyrimidin-4-yl)benzenesulfonamide 2,2,2-trifluoroacetate]: the IC50 against NaV1.1 turned out to be 20.3 µM; at NaV1.5, 30 µM; on NaV1.6 [1] it was 0.011 µM; on NaV1.6 [2], 0.01 µM.
As to `Cc1cc(-c2cccc(F)c2CNc2cc(F)c(S(=O)(=O)Nc3cscn3)c(F)c2)ccn1` [Example 317, 2,6-difluoro-4-((2-fluoro-6-(2-methylpyridin-4-yl)benzyl)amino)-N-(thiazol-4-yl)benzenesulfonamide formate], the IC50 against NaV1.1 is 3.91 µM; on NaV1.5 it was 30 µM; at NaV1.6 [1] it was 0.982 µM; against NaV1.6 [2], 0.328 µM.
On to `O=S(=O)(Nc1cscn1)c1c(F)cc(NCc2ccccc2CCN2CC(F)(F)C2)cc1F` [Example 319, 4-((2-(2-(3,3-difluoroazetidin-1-yl)ethyl)benzyl)amino)-2,6-difluoro-N-(thiazol-4-yl)benzenesulfonamide], for which the IC50 at NaV1.1 was found to be 18 µM; at NaV1.5 it was 20 µM; at NaV1.6 [2] it was 2.31 µM.
For the compound `O=S(=O)(Nc1cscn1)c1c(F)cc(NCc2ccccc2CCN2CC(F)C2)cc1F` [Example 320, 4-((2-(2-(3-fluoroazetidin-1-yl)ethyl)benzyl)amino)-2,6-difluoro-N-(thiazol-4-yl)benzenesulfonamide formate], the IC50 on NaV1.1 was 6.5 µM; on NaV1.5, 17.9 µM; against NaV1.6 [2], 0.055 µM.
The corresponding values for `O=S(=O)(Nc1cscn1)c1cc(Cl)c(N[C@@H]2C[C@H](N3CCC3)c3ccccc32)cc1F` [Example 321, 4-(((1R,3S)-3-(azetidin-1-yl)-2,3-dihydro-1H-inden-1-yl)amino)-5-chloro-2-fluoro-N-(thiazol-4-yl)benzenesulfonamide formate] are 4.77 µM, 28.1 µM and 0.091 µM.
On to `O=S(=O)(Nc1cccc(F)n1)c1c(F)cc(NCc2c(F)cccc2CN2CCC2)cc1F` [Example 322, 4-((2-(azetidin-1-ylmethyl)-6-fluorobenzyl)amino)-2,6-difluoro-N-(6-fluoropyridin-2-yl)benzenesulfonamide formate], for which the IC50 at NaV1.1 is 7.75 µM; at NaV1.5 it was 30 µM; at NaV1.6 [1] it was 0.047 µM; at NaV1.6 [2], 0.114 µM.
Consider `C=Cc1cc(S(=O)(=O)Nc2cscn2)c(F)cc1NCc1ccccc1CN1CCC1` [Example 323, 4-((2-(azetidin-1-ylmethyl)benzyl)amino)-2-fluoro-N-(thiazol-4-yl)-5-vinylbenzenesulfonamide formate], for which the concentration for half-maximal inhibition (IC50) was found to be 9.38 µM on NaV1.1, 15 µM on NaV1.5 and 0.518 µM against NaV1.6 [2].
As to `O=S(=O)(Nc1cccc(F)n1)c1c(F)cc(NCc2ccccc2CN2CCC2)cc1F` [Example 324, 4-((2-(azetidin-1-ylmethyl)benzyl)amino)-2,6-difluoro-N-(6-fluoropyridin-2-yl)benzenesulfonamide], the IC50 against NaV1.1 is 18.9 µM; at NaV1.5, 30 µM; on NaV1.6 [2], 0.647 µM.
Take `O=S(=O)(Nc1ncns1)c1c(F)cc(NCc2ccccc2CN2CCC2)c(Cl)c1F` [Example 327, 4-((2-(azetidin-1-ylmethyl)benzyl)amino)-3-chloro-2,6-difluoro-N-(1,2,4-thiadiazol-5-yl)benzenesulfonamide formate]: the IC50 on NaV1.1 was found to be 4.44 µM; at NaV1.5, 30 µM; against NaV1.6 [1] it was 0.001 µM; on NaV1.6 [2], 0.003 µM.
For `O=S(=O)(Nc1ccccn1)c1c(F)cc(NCc2c(F)cccc2CN2CCC2)cc1F` [Example 328, 4-((2-(azetidin-1-ylmethyl)-6-fluorobenzyl)amino)-2,6-difluoro-N-(pyridin-2-yl)benzenesulfonamide], the IC50 at NaV1.1 stood at 30 µM; at NaV1.5, 30 µM; against NaV1.6 [1] it was 1.04 µM; against NaV1.6 [2], 3.82 µM.
As to `Cc1cc(S(=O)(=O)Nc2cccc(F)n2)c(F)cc1NCc1ccccc1CN1CCC1` [Example 329, 4-((2-(azetidin-1-ylmethyl)benzyl)amino)-2-fluoro-N-(6-fluoropyridin-2-yl)-5-methylbenzenesulfonamide], the IC50 at NaV1.1 amounted to 8.12 µM; at NaV1.5, 28.4 µM; against NaV1.6 [2], 0.214 µM.
The corresponding values for `O=S(=O)(Nc1nccs1)c1cc(Cl)c(N[C@H](c2ccccc2F)C(F)(F)F)cc1F` [Example 332, (R)-5-chloro-2-fluoro-N-(thiazol-2-yl)-4-((2,2,2-trifluoro-1-(2-fluorophenyl)ethyl)amino)benzenesulfonamide] are 0.831 µM, 7.24 µM and 0.275 µM.
For the compound `CC1(F)CN(Cc2cccc(F)c2CNc2cc(F)c(S(=O)(=O)Nc3ccon3)c(F)c2)C1` [Example 337, 2,6-difluoro-4-((2-fluoro-6-((3-fluoro-3-methylazetidin-1-yl)methyl)benzyl)amino)-N-(isoxazol-3-yl)benzenesulfonamide formate], the IC50 on NaV1.1 is 14.3 µM; at NaV1.5 it was 30 µM; on NaV1.6 [2] it was 0.266 µM.
With `CC[C@H](Oc1cc(F)c(S(=O)(=O)Nc2cscn2)cc1Cl)c1ccccc1F` [Example 338, (S)-5-chloro-2-fluoro-4-(1-(2-fluorophenyl)propoxy)-N-(thiazol-4-yl)benzenesulfonamide], the 50% inhibitory concentration (IC50) on NaV1.1 is 5.71 µM; on NaV1.5, 2.65 µM; against NaV1.6 [2], 1.62 µM.
The corresponding values for “(R)-5-chloro-2-fluoro-4-((1-(isoquinolin-8-yl)ethyl)amino)-N-(thiazol-2-yl)benzenesulfonamide [Example 13]” are 30 µM, 30 µM and 5.89 µM.
For the compound “(S)-5-chloro-2-fluoro-4-((1-(isoquinolin-8-yl)ethyl)amino)-N-(thiazol-2-yl)benzenesulfonamide [Example 12]”, the figures for the IC50 at NaV1.1, at NaV1.5 and at NaV1.6 [2] were 30 µM, 30 µM and 1.98 µM, respectively.

Values taken from US11174268B2, “Benzenesulfonamide compouds and their use as therapeutic agents” (Xenon Pharmaceuticals Inc., priority 2016, dated 2021).
